From patent publication US20240050400A1, “Use of the Sesquiterpene Lactone Tomentosin in the Treatment of Tumors Caused by Lymphoid Cell Lines” (Universita Degli Studi Di Sassari, priority 2021, published 2024)

How the values were obtained:
[1] = tested on: aggressive human melanoma cell lines; conditions: cited from earlier work
[2] = tested on: MM.1S (of multiple myeloma) cells; assay: Cell proliferation (CellTiter-Glo) and cytotoxicity (CellTox Green) test, MM.1S; assay type: cell-based; conditions: MM.1S cells; for effect on cells (cell proliferation / cell death): 48 hours of treatment
Protocol: (§1) The molecules were tested at 7 different concentrations: 50 μM, 25 μM, 12.5 μM, 6.25 μM, 3.125 μM, 1.56 μM, 0.75 μM, in culture with lymphoid tumor (myeloma, lymphoma) cell lines.
(§2) Tested cell lines: • MM.1S (of multiple myeloma), cultivated in RPMI-1640 medium, 10% FBS, L-Glutamine, AA • RPMI-8226 (of multiple myeloma), cultivated in RPMI-1640 medium, 10% FBS, L-Glutamine, AA; • Raji (of Burkitt lymphoma), cultivated in RPMI-1640 medium, 10% FBS, L-Glutamine, AA; • MRC5 (of pulmonary fibroblasts), cultivated in DMEM medium, 10% FBS, L-Glutamine, AA, Pyruvate Sodium, NEAA.
(§3) After 48 hours of treatment, drug-induced cellular death was estimated by measuring the intensity of the fluorescence signal after staining the dead cells using a known method (CellTox Green Dye—Promega).
(§4) Soon afterwards, the number of live cells was evaluated by adding CellTiter Glo P (Promega) reagent, through which the cell lysis and the luminescence signal are directly proportional to the ATP levels in each sample.
(§5) 24 hours prior to the addition of the compound under examination, the cells resuspended at adequate concentrations were seeded in 384-well flat clear bottom black polystyrene TC-treated microplates (Corning 3764).
(§6) Each well contained 20 μL of cell suspension. The day after, […] of the molecules under examination, with integrated CellTox (Promega G8731) green dye, were added to each sample to obtain the desired treatment concentrations.
(§7) The seeding of the cells, the preparation of the serial dilutions, and the addition of the molecules to the cells were performed using an automated liquid pipetting platform (Gilson Pipetmax).
(§8) 48 hours after the treatment, the intensity of the global green fluorescence in each well was quantified using Biotek Cytation 5. For each sample, four images were taken to cover the whole area of the well. Image merging, processing and background removal were performed using the Gen5 software. Immediately after the fluorescence reading, 30 μL of CellTiter Glo reagent (Promega G7571) just prepared were added to each well, and each sample was mixed 5 times. Ten minutes later, a luminescence reading was taken. Three technical replicates for each condition under examination were plated.
(§9) CellTiter-Glo is a reagent used for determining the number of viable cells in a culture based on the quantification of ATP, which signals the presence of metabolically active cells.
(§10) The reagent is added directly to the samples, resulting in cell lysis and generation of a luminescent signal that is proportional to the quantity of ATP. The luminescence signal is quantified using Promega Glo-Max Discover.
(§11) The CellTox green dye measures the changes that have occurred in the integrity of the membrane following cell death. The test uses a dye which is excluded from viable cells while coloring the DNA of dead cells. When the dye binds to the DNA of the compromised cells, the fluorescent properties of the dye are enhanced, whereas viable cells produce no perceptible increase in fluorescence. Therefore, the fluorescent signal produced by the dye is proportional to cytotoxicity. Fluorescence intensity (GFI) is quantified by means of a Biotek Cytation 5 wide-field automated digital microscope, led cube 465 nm, filter cube excitation 469±25 nm, emission 525±25 nm.
(§12) Cell viability is calculated as relative cell count (R): […]
(§13) where T is the number of cells in the treated sample and U is the number of cells in the untreated sample. […]

[3] = tested on: RPMI-8226 (of multiple myeloma) cells; assay: Cell proliferation (CellTiter-Glo) and cytotoxicity (CellTox Green) test, RPMI-8226; assay type: cell-based; conditions: RPMI-8226 cells; for effect on cells (cell proliferation / cell death): 0.75-50 μM, 48 hours of treatment
Protocol: The molecules were tested at 7 different concentrations: 50 μ[…], in culture with lymphoid tumor (myeloma, lymphoma) cell lines. Tested cell lines: • MM.1S (of multiple myeloma), cultivated in RPMI-1640 medium, 10% FBS, L-Glutamine, AA • RPMI-8226 (of multiple myeloma), cultivated in RPMI-1640 medium, 10% FBS, L-Glutamine, AA; • Raji (of Burkitt lymphoma), cultivated in RPMI-1640 medium, 10% FBS, L-Glutamine, AA; • MRC5 (of pulmonary fibroblasts), cultivated in DMEM medium, 10% FBS, L-Glutamine, AA, Pyruvate Sodium, NEAA. […] After 48 hours of treatment, drug-induced cellular death was estimated by measuring the intensity of the fluorescence signal after staining the dead cells using a known method (CellTox Green Dye-Promega). Soon afterwards, the number of live cells was evaluated by adding CellTiter Glo P (Promega) reagent, through which the cell lysis and the luminescence signal are directly proportional to the ATP levels in each sample. 24 hours prior to the addition of the compound under examination, the cells resuspended at adequate concentrations were seeded in 384-well flat clear bottom black polystyrene TC-treated microplates (Corning 3764). Each well contained 20 μL of cell suspension. […] The seeding of the cells, the preparation of the serial dilutions, and the addition of the molecules to the cells were performed using an automated liquid pipetting platform (Gilson […]). 48 hours after the treatment, the intensity of the global green fluorescence in each well was quantified using Biotek Cytation 5. […] Immediately after the fluorescence reading, 30 μL of CellTiter Glo reagent (Promega G7571) just prepared were added to each well, and each sample was mixed 5 times. Ten minutes later, a luminescence reading was taken. […] CellTiter-Glo is a reagent used for determining the number of viable cells in a culture based on the quantification of ATP, which signals the presence of metabolically active cells. The reagent is added directly to the samples, resulting in cell lysis and generation of a luminescent signal that is proportional to the quantity of ATP. The luminescence signal is quantified using Promega Glo-Max Discover. […] When the dye binds to the DNA of the compromised cells, the fluorescent properties of the dye are enhanced, whereas viable cells produce no perceptible increase in fluorescence. […] Fluorescence intensity (GFI) is quantified by means of a Biotek Cytation 5 wide-field automated digital microscope, led cube 465 nm, filter cube excitation 469±25 nm, emission 525±25 nm. Cell viability is calculated as relative cell count (R): R=T/U×100 where T is the number of cells in the treated sample and U is the number of cells in the untreated sample. […] Cell death is measured as green fluorescence intensity (GFI).

[4] = tested on: MRC5 (of pulmonary fibroblasts) non-tumor cells; assay: Cell proliferation (CellTiter-Glo) and cytotoxicity (CellTox Green) test, MRC5 non-tumor control; assay type: cell-based; conditions: for IC50 relative to the maximum concentration tested: highest tested concentration 50 μM
Protocol: The MRC5 cell line was used as a control to evaluate if these molecules were toxic also towards non-tumor cells.
Soon afterwards, the number of live cells was evaluated by adding CellTiter Glo P (Promega) reagent, through which the cell lysis and the luminescence signal are directly proportional to the ATP levels in each sample. […]

[5] = tested on: Raji (of Burkitt lymphoma) cells; assay: Cell proliferation (CellTiter-Glo) and cytotoxicity (CellTox Green) test, Raji; assay type: cell-based; conditions: for effect on cells (cell proliferation / cell death): 48 hours of treatment
Protocol: as §1, §2, §3, §4, §5, §6, §7, §8, §9, §10, §11, §12, §13

[6] = tested on: MOLT-4 cell line of human leukemia; conditions: through inhibition of the mTOR/PI3K/Akt signalling pathway; cited from earlier work
[7] = highest tested concentration 50 μM

Row | Structure (SMILES) | pro-apoptotic effect [1] | anti-proliferative activity ([2]; 0.75-50 μM) | IC50 relative to the maximum concentration tested [2, 7] | effect on cells (cell proliferation / cell death) [3] | IC50 relative to the maximum concentration tested [4] | anti-proliferative activity ([5]; 0.75-50 μM) | IC50 relative to the maximum concentration tested [5, 7] | effect on cells (cell proliferation / cell death) ([2]; 0.75-50 μM) | effect on cell proliferation and apoptosis [6] | anti-proliferative activity ([4]; 0.75-50 μM) | effect on cells (cell proliferation / cell death) ([5]; 0.75-50 μM) | IC50 ([2]; after 72 hours of culture) | IC50 ([3]; after 72 hours of culture) | IC50 ([5]; after 72 hours of culture)
1 | C=C1C(=O)O[C@H]2CC(=C)[C@H]3CC[C@@](C)(O)[C@@H]3C[C@H]12 [Inuvisculide] | strong pro-apoptotic effect | low anti-proliferative activity | > the maximum concentration | cytostatic effect | > the maximum concentration | low anti-proliferative activity | > the maximum concentration | – | – | – | – | – | – | –
2 | C=C1C(=O)O[C@@H]2C[C@H](C)C(CCC(C)=O)=CC[C@H]12 [Tomentosin] | strong pro-apoptotic effect | – | – | cytostatic effect | > the maximum concentration | – | – | cytotoxic effect | inhibits cell proliferation and induces apoptosis | low anti-proliferative activity | cytotoxic effect | – | – | –
3 | N.N.[Cl][Pt][Cl] [cysplatin, Cisplatin] | – | – | – | reduced cell proliferation and increased cell death | – | – | – | reduced cell proliferation and increased cell death | – | – | reduced cell proliferation and increased cell death | 12.3 µM | 14.9 µM | 25.7 µM
